Measurements taken from paper PMC12147183, “Lacritin cleavage-potentiated targeting of iron - respiratory reciprocity promotes bacterial death” (The Journal of Biological Chemistry, 2025).
Peptide text beside a SMILES is read from it.

How the values were obtained:
[1] = system: ^14C-spermidine uptake by PA14; format: cell-based, Pseudomonas aeruginosa
Procedure: 100 μl aliquots (0.8 × 10^8 cfu) of PA14 cell cultures in 1 mM Na2HPO4, 0.18 mM KH2PO4, 0.27 mM KCl, 13.7 mM NaCl without or with 1, 10, 25, 50 or 100 μM N-104 (or N-80/C-25 or C-95) for 45 min at 35 °C were incubated with 1 μl of 10 mM [1,4-^14C]putrescine (0.1 mCi/ml; ARC-0245–250, American Radiolabeled Chemicals) or [1,4-^14C]spermidine (0.1 mCi/ml; ARC-3138–50, American Radiolabeled Chemicals) for 15 min at 35 °C. Cell pellets were washed four times with 100 μl of 10 mM Na2HPO4, 1.8 mM KH2PO4, 2.7 mM KCl, 137 mM NaCl (pH 7.2) and then transferred to 4 ml of scintillation fluid (1200.437, PerkinElmer OptiPhase HiSafe 3) for analysis in a Beckman Coulter LS6500. Also assessed was radioactivity from the last wash. Single-molecule transportation per cell was estimated using standard curves for each radiolabeled polyamine.

OprF = molecular target: T1, OprF (Pseudomonas aeruginosa, UniProt P13794); assay: Affinity pulldown/tandem mass spectrometry of PA14 lysate; format: binding, Pseudomonas aeruginosa PA14; conditions: 500 mM KCl eluate, n-octyl-β-D-glucopyranoside lysate, 4 °C
T1 construct: endogenous in cells; host or cells: P. aeruginosa PA14 overnight culture, n-octyl-β-D-glucopyranoside lysate
T1 sequence (P13794 25-350): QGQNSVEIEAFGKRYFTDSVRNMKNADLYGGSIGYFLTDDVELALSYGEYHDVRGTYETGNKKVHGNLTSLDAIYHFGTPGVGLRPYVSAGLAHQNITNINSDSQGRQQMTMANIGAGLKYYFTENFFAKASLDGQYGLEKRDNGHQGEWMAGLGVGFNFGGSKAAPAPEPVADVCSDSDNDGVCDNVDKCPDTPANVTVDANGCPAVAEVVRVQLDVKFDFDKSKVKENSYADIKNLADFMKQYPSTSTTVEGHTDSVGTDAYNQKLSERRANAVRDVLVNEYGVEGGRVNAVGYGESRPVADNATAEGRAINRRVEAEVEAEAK
Procedure: (§1) For generation of N-104 and negative control C-95 affinity columns, 2 mg of Cys(N)-N-104 or Cys(N)-C-95 in 2 ml of 50 mM Tris (pH 8.5), 5 mM EDTA coupling buffer were incubated with an equal volume of suspended SulfoLink Coupling Resin with mixing for 3 h at room temperature. Columns were subsequently washed with 3 ml of coupling buffer followed by 2 ml of freshly prepared 50 mM L-cysteine for 2 h at room temperature for quenching and then washed with 10 ml of 1 M NaCl prior to use or storage in 0.05% sodium azide at 4 °C. Coupling efficiency was determined using fluorescence from N-104's penultimate C-terminal tryptophan as 0.65 ± 0.04 μmole per ml of resin.
(§2) Screening for PA14 proteins with N-104 affinity columns was initiated from pelleted 2.5 L overnight cultures that were washed with ice-cold 10 mM Na2HPO4, 1.8 mM KH2PO4, 2.7 mM KCl, 137 mM NaCl (pH 7.2) and lysed by sonication in 25 ml of 50 mM Tris (pH 7.5), 1 mM MgCl2, 200 mM n-octyl-β-D-glucopyranoside with protease inhibitors. Sonication involved five cycles of 15 s with 45 s rest on ice followed by vortexing on ice for 30 min before being rocked end-over-end overnight at 4 °C. After centrifugation, the supernatant was subjected to end-over-end mixing with a 3-ml pre-column of Pierce Agarose followed by equal division by protein concentration for end-over-end incubation with 1 ml N-104 or C-95 columns at 4 °C. […]

YaiW = assay: as above; format: binding, Pseudomonas aeruginosa PA14; conditions: 500 mM KCl eluate, n-octyl-β-D-glucopyranoside lysate, 4 °C
Procedure: as §1, §2

wild-type E. coli K-12 = assay: Alamar Blue viability assay of wild-type E. coli K-12; format: cell-based, Escherichia coli; conditions: 100 μM, wild-type E. coli K-12 10^6 cfu/ml, 37 °C, hourly, n = 3
[2] = Surface plasmon resonance on chip-supported Gram-positive model membrane; format: binding; conditions: highest N-104 concentration, PC:PG Gram-positive model membrane
[3] = system: Keio E. coli K-12 single gene knockout strains; assay: Forward genetic N-104 resistance screen of Keio single gene knockouts; format: cell-based, Escherichia coli; conditions: 100 μM N-104, slope 5 h after/5 h before; resistance cutoff 0.75
Procedure: We took advantage of the Alamar Blue viability assay ([85]). Briefly, wells of deep 96-well plates (1896–2000, USA Scientific) each containing 0.8 ml of LB broth supplemented with 50 μg/ml of kanamycin (BP906–5, Fisher Scientific) were singly inoculated with 10 μl aliquots of each of the 3884 Keio E. coli K-12 single gene knockout strains for 16 h at 37 °C on a rotator (160 rpm). A total of 200 μl of a 1:1000 dilution of each (∼10^6 cfu/ml) in 1 mM Na2HPO4, 0.18 mM KH2PO4, 0.27 mM KCl, 13.7 mM NaCl (pH 7.2) containing 10% Alamar Blue (DAL1100, Invitrogen) in wells of black 96-well plates was monitored hourly for 5 h in a SpectraMax M3 plate reader (Molecular Devices) with 3 s agitation before simultaneously reading from the well bottoms at medium PMT voltage with a 590 nm cutoff filter and six flashes per read for the Alamar Blue fluorescence signal (excitation/detection = 560/590 nm). The same hourly monitoring continued for 30 h after the addition of N-104, N-80/C-25 (negative control), or ampicillin (positive control; BP1760–5; Fisher Scientific) at a final concentration of 100 μM each. Data for each of the 3,884 strains were normalized to untreated with 10% Alamar Blue background subtracted as the ratio of the viability slope during the first 5 hours of N-104 treatment versus the slope 5 h previous.

| SMILES | effect on ^14C-spermidine uptake ([1]; 1 to 100 μM peptide) | binding of outer membrane OprF to immobilized peptide (OprF) | IC50 [1] | affinity of outer membrane YaiW for immobilized peptide (YaiW) | bacterial metabolic activity (Alamar Blue) (wild-type E. coli K-12) | SPR response after buffer wash versus baseline [2] | treated:untreated metabolic slope ratio, ΔSbmA E. coli [3] | treated:untreated metabolic slope ratio, ΔYaiW E. coli [3] |
| --- | --- | --- | --- | --- | --- | --- | --- | --- |
| C[C@H](NC(=O)CNC(=O)[C@@H](NC(=O)[C@H](CO)NC(=O)[C@H](CC(=O)O)NC(=O)[C@H](CO)NC(=O)[C@H](CO)NC(=O)[C@H](C)NC(=O)[C@H](CC(=O)O)NC(=O)[C@@H](N)CCC(=O)O)[C@@H](C)O)C(=O)N[C@@H](CC(=O)O)C(=O)N1CCC[C@H]1C(=O)N[C@@H](C)C(=O)N[C@@H](CCC(N)=O)C(=O)N[C@@H](CCC(=O)O)C(=O)N[C@@H](C)C(=O)NCC(=O)N[C@H](C(=O)N[C@@H](CO)C(=O)N[C@@H](CCCCN)C(=O)N1CCC[C@H]1C(=O)N[C@@H](CC(N)=O)C(=O)N[C@@H](CCC(=O)O)C(=O)N[C@@H](CCC(=O)O)C(N)=O)[C@@H](C)O [C-95, reference compound] (H-EDASSDSTGADPAQEAGTSKPNEE-NH2) | had no effect | binds OprF | – | – | – | – | – | – |
| CC(=O)N[C@@H](C)C(=O)N[C@@H](CCC(N)=O)C(=O)N[C@@H](CCCCN)C(=O)N[C@@H](CC(C)C)C(=O)N[C@@H](CC(C)C)C(=O)N[C@@H](CCCCN)C(=O)N[C@@H](CCCCN)C(=O)N[C@@H](Cc1ccccc1)C(=O)N[C@@H](CO)C(=O)N[C@@H](CC(C)C)C(=O)N[C@@H](CC(C)C)C(=O)N[C@@H](CCCCN)C(=O)N1CCC[C@H]1C(=O)N[C@@H](Cc1c[nH]c2ccccc12)C(=O)N[C@@H](C)C(=O)O [N-104] (Ac-AQKLLKKFSLLKPWA-OH) | – | – | 10 µM | selective affinity | inhibitory | slightly below baseline | 0.69 | 0.70 |
